Laboratory results as given in patent US10947188B2, “Small molecule ferroptosis inducers” (THE TRUSTEES OF COLUMBIA UNIVERSITY IN THE CITY OF NEW YORK, priority 2016, dated 2021).

Tests used:
HT-1080 = assay: Modulatory profiling: Alamar Blue viability, lethal compound cotreated with death modulator (EC50, AUC); type: cell-based; set-up: AUC, modulator HT.3MA / AUC, modulator HT.ALLN / AUC HT.ATA / AUC HT.ActD / AUC HT.BHA / AUC HT.BHT / AUC HT.BocD / AUC HT.CHX / AUC HT.Co2+ / AUC HT.DPQ / AUC HT.EGTA / AUC HT.Lmim / AUC HT.NAD+ / AUC HT.Nec-1 / AUC HT.SP600125 / AUC HT.TLCK / AUC HT.U0126: unit not given beside the values; details: for AUC HT.ATA: HT-1080, modulator ATA; for AUC HT.ActD: HT-1080, modulator ActD; for AUC HT.BHA: HT-1080, modulator BHA; for AUC HT.BHT: HT-1080, modulator BHT; for AUC HT.BocD: HT-1080, modulator BocD; for AUC HT.CHX: HT-1080, modulator CHX; for AUC HT.Co2+: HT-1080, modulator Co2+; for AUC HT.CspA: HT-1080, modulator CspA; for AUC HT.DPQ: HT-1080, modulator DPQ; for AUC HT.EGTA: HT-1080, modulator EGTA; for AUC HT.Gd3+: HT-1080, modulator Gd3+; for AUC HT.LNAME: HT-1080, modulator LNAME; for AUC HT.Lmim: HT-1080, modulator Lmim; for AUC HT.NAD+: HT-1080, modulator NAD+; for AUC HT.NMMA: HT-1080, modulator NMMA; for HT.atoc (AUC) / HT.bCarotene (AUC) / HT.deferox (AUC) / HT.digoxin (AUC) / HT.trolox (AUC) / HT.zVAD (AUC): HT-1080; for HT.atoc (AUC): modulator atoc; for HT.bCarotene (AUC): modulator bCarotene; for HT.deferox (AUC): modulator deferox; for HT.digoxin (AUC): modulator digoxin; for HT.trolox (AUC): modulator trolox; for HT.zVAD (AUC): modulator zVAD; on AUC HT.BHA: reference of the scale not given here; on AUC HT.EGTA: reference of the scale not given here
BJeLR = assay: as above; type: cell-based, human; set-up: AUC, modulator BJ.Gd3+ / AUC, modulator BJ.LNAME / AUC, modulator BJ.Lmin / AUC, modulator BJ.3MA / AUC, modulator BJ.ALLN / AUC, modulator BJ.Boc D / AUC, modulator BJ.CHX / AUC, modulator BJ.Co2+ / AUC, modulator BJ.Nec-1 / AUC, modulator BJ.Pepstatin / AUC, modulator BJ.TLCK / AUC, modulator BJ.atoc / AUC, modulator BJ.trolox / AUC, modulator BJ.zVAD: unit not given beside the values; details: BJeLR cells, modulatory profile value (AUC); for AUC, modulator BJ.3MA: lethal compound cotreated with modulator 3MA; for AUC, modulator BJ.ALLN: lethal compound cotreated with modulator ALLN; for AUC, modulator BJ.Boc D: lethal compound cotreated with modulator Boc D; for AUC, modulator BJ.CHX: lethal compound cotreated with modulator CHX; for AUC, modulator BJ.Co2+: lethal compound cotreated with modulator Co2+; for AUC, modulator BJ.DPQ: lethal compound cotreated with modulator DPQ; for AUC, modulator BJ.Gd3+: lethal compound cotreated with modulator Gd3+; for AUC, modulator BJ.LNAME: lethal compound cotreated with modulator LNAME; for AUC, modulator BJ.Lmin/NAD+: lethal compound cotreated with modulator Lmin/NAD+; for AUC, modulator BJ.Lmin: lethal compound cotreated with modulator Lmin; for AUC, modulator BJ.NAD+: lethal compound cotreated with modulator NAD+; for AUC, modulator BJ.NMMA: lethal compound cotreated with modulator NMMA; for AUC, modulator BJ.Nec-1: lethal compound cotreated with modulator Nec-1; for AUC, modulator BJ.Pepstatin: lethal compound cotreated with modulator Pepstatin; for AUC, modulator BJ.TLCK: lethal compound cotreated with modulator TLCK; on AUC, modulator BJ.3MA: reference of the scale not given here; on AUC, modulator BJ.ALLN: reference of the scale not given here; on AUC, modulator BJ.Boc D: reference of the scale not given here; on AUC, modulator BJ.CHX: reference of the scale not given here; on AUC, modulator BJ.Co2+: reference of the scale not given here; on AUC, modulator BJ.DPQ: reference of the scale not given here; on AUC, modulator BJ.Gd3+: reference of the scale not given here; on AUC, modulator BJ.LNAME: reference of the scale not given here; on AUC, modulator BJ.NAD+: reference of the scale not given here; on AUC, modulator BJ.NMMA: reference of the scale not given here; on AUC, modulator BJ.Nec-1: reference of the scale not given here; on AUC, modulator BJ.Pepstatin: reference of the scale not given here; on AUC, modulator BJ.TLCK: reference of the scale not given here

Structure (SMILES) | AUC HT.ATA (HT-1080) | AUC HT.ActD (HT-1080) | AUC HT.BHA (HT-1080) | AUC HT.BHT (HT-1080) | AUC HT.BocD (HT-1080) | AUC HT.CHX (HT-1080) | AUC HT.Co2+ (HT-1080) | AUC HT.CspA (HT-1080) | AUC HT.DPQ (HT-1080) | AUC HT.EGTA (HT-1080) | AUC HT.Gd3+ (HT-1080) | AUC HT.LNAME (HT-1080) | AUC HT.Lmim (HT-1080) | AUC HT.NAD+ (HT-1080) | AUC HT.NMMA (HT-1080) | HT.atoc (AUC) (HT-1080) | HT.bCarotene (AUC) (HT-1080) | HT.deferox (AUC) (HT-1080) | HT.digoxin (AUC) (HT-1080) | HT.trolox (AUC) (HT-1080) | further results
COc1c2c(cc3c1C(CC(=O)/C=C/c1ccccc1)[N+](C)(C)CC3)OCO2 (stereo not drawn) [CIL77] | 0.05492 | 0.0959 | −0.008714 | −0.07998 | −0.02828 | 0.1436 | 0.1261 | −0.05791 | 0.003496 | −0.00345 | −0.0368 | 0.01693 | 0.02573 | 0.003357 | −0.01509 | 0.02076 | −0.005078 | 0.09145 | −0.01405 | −0.01064 | HT.zVAD (AUC) (HT-1080): 0.02554; AUC, modulator BJ.3MA (BJeLR): −0.05728; AUC, modulator BJ.ALLN (BJeLR): 0.01826; AUC, modulator BJ.Boc D (BJeLR): 0.05622; AUC, modulator BJ.CHX (BJeLR): 0.2548; AUC, modulator BJ.Co2+ (BJeLR): 0.1866; AUC, modulator BJ.DPQ (BJeLR): −0.009273; AUC, modulator BJ.Gd3+ (BJeLR): −0.007344; AUC, modulator BJ.LNAME (BJeLR): 0.03349; AUC, modulator BJ.Lmin/NAD+ (BJeLR): 0.04982; AUC, modulator BJ.Lmin (BJeLR): −0.04848; AUC, modulator BJ.NAD+ (BJeLR): −0.05677; AUC, modulator BJ.NMMA (BJeLR): −0.02771; AUC, modulator BJ.Nec-1 (BJeLR): −0.06543; AUC, modulator BJ.Pepstatin (BJeLR): 0.07338; AUC, modulator BJ.TLCK (BJeLR): −0.05565
C[C@H]1CCC[C@]2(C)C[C@H]3OC(=O)[C@H](CN4CCCC4)[C@H]3C=C12 [CIL80] | 0.05781 | 0.08002 | 0.009452 | −0.01971 | −0.02337 | 0.09741 | 0.112 | 0.01161 | −0.01717 | 0.0199 | −0.03226 | 0.01972 | 0.05449 | 0.01251 | −0.01256 | 0.004877 | 0.003874 | 0.1672 | 0.06493 | −0.01954 | HT.zVAD (AUC) (HT-1080): 0.03135; AUC, modulator BJ.3MA (BJeLR): 0.00654; AUC, modulator BJ.ALLN (BJeLR): −0.004769; AUC, modulator BJ.Boc D (BJeLR): 0.008783; AUC, modulator BJ.CHX (BJeLR): 0.1351; AUC, modulator BJ.Co2+ (BJeLR): 0.09506; AUC, modulator BJ.DPQ (BJeLR): −0.03368; AUC, modulator BJ.Gd3+ (BJeLR): 0.01802; AUC, modulator BJ.LNAME (BJeLR): 0.02901; AUC, modulator BJ.Lmin/NAD+ (BJeLR): 0.09271; AUC, modulator BJ.Lmin (BJeLR): 0.01639; AUC, modulator BJ.NAD+ (BJeLR): −0.008515; AUC, modulator BJ.NMMA (BJeLR): −3.885E−05; AUC, modulator BJ.Nec-1 (BJeLR): −0.01593; AUC, modulator BJ.Pepstatin (BJeLR): 0.03142; AUC, modulator BJ.TLCK (BJeLR): −0.006094
CC(C(NNC(=O)c1ccc(C(F)(F)F)cc1)c1ccc(Br)cc1)[N+](=O)[O-] (stereo not drawn) [CIL87] | 0.1137 | −0.007586 | −0.003358 | −0.08317 | −0.007134 | 0.0673 | 0.03163 | −0.05358 | −0.02562 | 0.005305 | −0.02756 | 0.005257 | −0.002116 | −0.001926 | −0.01237 | 0.05929 | 0.01927 | 0.07034 | 0.04582 | −0.03188 | HT.zVAD (AUC) (HT-1080): 0.02258; AUC, modulator BJ.3MA (BJeLR): −0.002764; AUC, modulator BJ.ALLN (BJeLR): −0.08721; AUC, modulator BJ.Boc D (BJeLR): −0.0134; AUC, modulator BJ.CHX (BJeLR): 0.295; AUC, modulator BJ.Co2+ (BJeLR): 0.1416; AUC, modulator BJ.DPQ (BJeLR): −0.03202; AUC, modulator BJ.Gd3+ (BJeLR): 0.0149; AUC, modulator BJ.LNAME (BJeLR): 0.02319; AUC, modulator BJ.Lmin/NAD+ (BJeLR): 0.07639; AUC, modulator BJ.Lmin (BJeLR): 0.0007714; AUC, modulator BJ.NAD+ (BJeLR): −0.03293; AUC, modulator BJ.NMMA (BJeLR): −0.007384; AUC, modulator BJ.Nec-1 (BJeLR): −0.0482; AUC, modulator BJ.Pepstatin (BJeLR): −0.03283; AUC, modulator BJ.TLCK (BJeLR): 0.003206
CCC(C(NNC(=O)c1ccc(C(F)(F)F)cc1)c1ccc(C(F)(F)F)cc1)[N+](=O)O (stereo not drawn) [CIL88] | 0.08122 | −0.03102 | 0.007109 | −0.09988 | 0.02037 | 0.04478 | 0.01652 | −0.05842 | −0.01431 | 0.01878 | −0.03651 | 0.02199 | 0.01907 | 0.007478 | −0.000615 | 0.07162 | 0.02318 | 0.0616 | 0.05526 | −0.01577 | HT.zVAD (AUC) (HT-1080): 0.04371; AUC, modulator BJ.3MA (BJeLR): 0.03093; AUC, modulator BJ.ALLN (BJeLR): −0.1424; AUC, modulator BJ.Boc D (BJeLR): −0.01445; AUC, modulator BJ.CHX (BJeLR): 0.2354; AUC, modulator BJ.Co2+ (BJeLR): 0.05379; AUC, modulator BJ.DPQ (BJeLR): −0.03608; AUC, modulator BJ.Gd3+ (BJeLR): −0.03652; AUC, modulator BJ.LNAME (BJeLR): 0.0201; AUC, modulator BJ.Lmin/NAD+ (BJeLR): 0.03399; AUC, modulator BJ.Lmin (BJeLR): −0.01241; AUC, modulator BJ.NAD+ (BJeLR): −0.03559; AUC, modulator BJ.NMMA (BJeLR): −0.01217; AUC, modulator BJ.Nec-1 (BJeLR): −0.03649; AUC, modulator BJ.Pepstatin (BJeLR): −0.06126; AUC, modulator BJ.TLCK (BJeLR): 0.0209
CCOC(=O)[C@@H]1[C@@H](c2ccccc2)C(=O)CCN1NC(=O)c1ccccc1 [CIL89] | 0.05896 | 0.03977 | −0.006147 | −0.1188 | −0.004667 | −0.008693 | 0.008377 | −0.06906 | −0.005287 | 0.04226 | −0.04594 | 0.003061 | 0.02342 | 0.02662 | −0.009041 | 0.0671 | 0.01857 | 0.04587 | 0.01146 | −0.02147 | HT.zVAD (AUC) (HT-1080): 0.03058; AUC, modulator BJ.3MA (BJeLR): −0.01648; AUC, modulator BJ.ALLN (BJeLR): −0.1204; AUC, modulator BJ.Boc D (BJeLR): 0.03243; AUC, modulator BJ.CHX (BJeLR): 0.1968; AUC, modulator BJ.Co2+ (BJeLR): 0.01721; AUC, modulator BJ.DPQ (BJeLR): −0.02598; AUC, modulator BJ.Gd3+ (BJeLR): −0.07038; AUC, modulator BJ.LNAME (BJeLR): 0.03646; AUC, modulator BJ.Lmin/NAD+ (BJeLR): 0.04069; AUC, modulator BJ.Lmin (BJeLR): 0.03551; AUC, modulator BJ.NAD+ (BJeLR): −0.03932; AUC, modulator BJ.NMMA (BJeLR): −0.02344; AUC, modulator BJ.Nec-1 (BJeLR): −0.02957; AUC, modulator BJ.Pepstatin (BJeLR): −0.006292; AUC, modulator BJ.TLCK (BJeLR): −0.06676
